Source: ChEMBL document CHEMBL4513153, “CO-ADD screening of University of Northwestern St. Paul (MN, USA) compounds”

Columns and labels:
[1] = test system: Cryptococcus neoformans
Description: Antifungal activity against Cryptococcus neoformans H99 ATCC 208821 (CO-ADD:FG_002); MIC in YNB media using NBS plates, by Resazurin OD(600-570)

[2] = test system: Candida albicans; assay: microbe, parasite or virus in culture; conditions: ATCC 90028, ASSAY_TEST Inhibition of Fungal Growth, detection method Absorption (OD530), plate type 384well, NBS, CORNING #3640
Description: Antifungal activity against Candida albicans ATCC 90028 (CO-ADD:FG_001); MIC in YNB media using NBS plates, by OD630

[3] = test system: Escherichia coli; assay: microbe, parasite or virus in culture; conditions: ATCC 25922, 18 h, ASSAY_TEST Inhibition of Bacterial Growth, detection method Absorption (OD600), MEDIA CAMHB, plate type 384well, NBS, CORNING #3640
Description: Antibacterial activity against Escherichia coli ATCC 25922 (CO-ADD:GN_001); MIC in CAMBH media using NBS plates, by OD(600)

[4] = test system: Staphylococcus aureus; assay: microbe, parasite or virus in culture; conditions: ATCC 43300, 18 h, ASSAY_TEST Inhibition of Bacterial Growth, detection method Absorption (OD600), MEDIA CAMHB, plate type 384well, NBS, CORNING #3640
Description: Antibacterial activity against Staphylococcus aureus MRSA ATCC 43300 (CO-ADD:GP_020); MIC in CAMBH media, using NBS plates, by OD(600)

[5] = test system: Klebsiella pneumoniae; assay: microbe, parasite or virus in culture; conditions: ATCC 700603, 18 h, ASSAY_TEST Inhibition of Bacterial Growth, detection method Absorption (OD600), MEDIA CAMHB, plate type 384well, NBS, CORNING #3640
Description: Antibacterial activity against Klebsiella pneumoniae MDR ATCC 70063 (CO-ADD:GN_003); MIC in CAMBH media using NBS plates, by OD(600)

[6] = test system: HEK293; assay: cells; format: functional; conditions: Homo sapiens, ATCC CRL1573, HEK293; ASSAY_TEST Inhibition of Cell Viability; detection method Resazurin; Fluorescence (ex560/em590); MEDIA DMEM with 10% FBS; plate type 384well; TC; CORNING #3712; time 18 hr
[7] = test system: Acinetobacter baumannii; assay: microbe, parasite or virus in culture; conditions: ATCC 19606, 18 h, ASSAY_TEST Inhibition of Bacterial Growth, detection method Absorption (OD600), MEDIA CAMHB, plate type 384well, NBS, CORNING #3640
Description: Antibacterial activity against Acinetobacter baumannii ATCC 19606 (CO-ADD:GN_034); MIC in CAMBH media using NBS plates, by OD600

[8] = test system: Pseudomonas aeruginosa; assay: microbe, parasite or virus in culture; conditions: ATCC 27853, 18 h, ASSAY_TEST Inhibition of Bacterial Growth, detection method Absorption (OD600), MEDIA CAMHB, plate type 384well, NBS, CORNING #3640
Description: Antibacterial activity against Pseudomonas aeruginosa ATCC 27853 (CO-ADD:GN_042); MIC in CAMBH media using NBS plates, by OD(600)

Compound | MIC [1] [µg/mL] | MIC [2] [µg/mL] | MIC [3] [µg/mL] | MIC [4] [µg/mL] | MIC [5] [µg/mL] | CC50 [6] [µg/mL] | MIC [7] [µg/mL] | MIC [8] [µg/mL]
NC(N)=Nc1nc(-c2csc3ccccc23)cs1 | > 32 | > 32 | > 32 | > 32 | > 32 | > 32 | > 32 | > 32
Cl.N=C(N)Nc1nc(-c2c[nH]c3ccccc23)cs1 | 16 | > 32 | > 32 | > 32 | > 32 | 9.6 | > 32 | > 32
